Experimental data published in PMC10456296, “Trichoderols B-G, Six New Lipids from the Marine Algicolous Fungus Trichoderma sp. Z43” (Marine Drugs, 2023).
In brackets after ≈: the same amount, converted by molar mass. Read-outs that look alike come from different tables or passages of the source.

Experiments:
[1] = test system: Prorocentrum donghaiense; assay: Antimicroalgal activity, inhibition of marine phytoplankton; conditions: for IC50: Prorocentrum donghaiense, 24 h, read-out: IC50 Prorocentrum donghaiense
[2] = test system: Fusarium graminearum; assay: microbe, parasite or virus in culture; format: cell-based; conditions: 48 h, read-out: MIC Fusarium graminearum
[3] = test system: Gaeumannomyces graminis; assay: Antifungal activity, microdilution method in 96-well plate; format: cell-based; conditions: 48 h, read-out: MIC Gaeumannomyces graminis
[4] = test system: Glomerella cingulata; assay: as above; format: cell-based; conditions: Colletotrichum gloeosporioides; microdilution in PDB, 28 °C, 48 h
[5] = test system: Heterosigma akashiwo; assay: Antimicroalgal activity, inhibition of marine phytoplankton; conditions: for IC50: Heterosigma akashiwo, 24 h, read-out: IC50 Heterosigma akashiwo
[6] = test system: Heterocapsa circularisquama; assay: as above; conditions: for IC50: Heterocapsa circularisquama, 24 h, read-out: IC50 Heterocapsa circularisquama
[7] = test system: three phytopathogenic fungi (Fusarium graminearum, Gaeumannomyces graminis, and Glomerella cingulata); assay: organism not typed; format: cell-based; conditions: for MIC: read-out: MIC against the three phytopathogenic fungi tested, summary over three fungi; for antifungal activity (in words): summary over three fungi
[8] = test system: Amphidinium carterae; assay: Antimicroalgal activity, inhibition of marine phytoplankton; conditions: for IC50: Amphidinium carterae, 24 h, read-out: IC50 Amphidinium carterae
[9] = test system: Artemia salina; assay: Brine shrimp lethal activity; format: in vivo; conditions: 24 h
Description: The inhibition of the brine shrimp Artermia salina was assayed according to the procedures described in our previous report. In brief, brine shrimp eggs were left to hatch in sea water for 48 h at 25 °C under natural light. […] The lethality was observed after 24 h of cultivation.

Row | SMILES | IC50 [1] [µg/mL] | MIC [2] [µg/mL] | MIC [3] [µg/mL] | MIC [4] [µg/mL] | IC50 [5] [µg/mL] | IC50 [6] [µg/mL] | MIC [7] [µg/mL] | antifungal activity (in words) [7] | IC50 [8] [µg/mL] | MIC ([3]; microdilution in PDB, 28 °C) [µg/mL] | IC50 Prorocentrum donghaiense ([1]; live cells counted after 24 h) [µg/mL] | IC50 Heterosigma akashiwo ([5]; live cells counted after 24 h) [µg/mL] | Lethal Rate (at 100 μg/mL) Artemia salina [9] [%] | IC50 Heterocapsa circularisquama ([6]; live cells counted after 24 h) [µg/mL] | IC50 Amphidinium carterae ([8]; live cells counted after 24 h) [µg/mL]
1 | CC=CCCC1(O)OC(C(O)C=CC)CC1O (stereo not drawn) [Compound 1, Trichoderol B] | 22 (≈ 90.8 µM) | 256 (≈ 1060 µM) | 256 (≈ 1060 µM) | 64 (≈ 264 µM) | 28 (≈ 116 µM) | 24 (≈ 99 µM) | 64 to 256 (≈ 264 to 1060 µM) | weak antifungal activity | 15 (≈ 61.9 µM) |  |  |  |  |  | 
2 | C=CCC(O)/C=C/C(O)C(O)CC/C=C/C (stereo not drawn) [Compound 3, (5E,11E)-trideca-1,5,11-trien-4,7,8-triol] | > 100 | > 256 |  | > 256 | > 100 | 78 (≈ 345 µM) |  |  | 66 (≈ 292 µM) | > 256 |  |  |  |  | 
3 | [K+].[K+].[O]=[Cr](=[O])([O-])[O][Cr](=[O])(=[O])[O-] [Compound K2Cr2O7, K2Cr2O7, reference compound] |  |  |  |  |  |  |  |  |  |  | 1.4 | 0.8 | 100 | 1.0 | 1.2
4 | C/C=C/CC[C@@H](O)[C@@H](O)C/C=C/[C@@H](O)[C@H](C)O [Compound 7, triharzianin B] | 30 (≈ 123 µM) | > 256 |  | 128 (≈ 524 µM) | 49 (≈ 201 µM) | > 100 | ≥ 64 | weak antifungal activity | > 100 | 256 (≈ 1050 µM) |  |  |  |  | 
5 | C[C@@H]1[C@H](O)[C@@H](C)/C=C/C=C/C=C/C=C/C=C/C=C/C=C/[C@H](O[C@@H]2O[C@H](C)[C@@H](O)[C@H](N)[C@@H]2O)C[C@@H]2O[C@](O)(C[C@@H](O)C[C@@H](O)[C@H](O)CC[C@@H](O)C[C@@H](O)CC(=O)O[C@H]1C)C[C@H](O)[C@H]2C(=O)O [amphotericin B, reference compound] |  | 2 (≈ 2.16 µM) |  | 1 (≈ 1.08 µM) |  |  |  |  |  | 2 (≈ 2.16 µM) |  |  |  |  | 
6 | C/C=C/CCC(O)C(O)/C=C/C=C/C(O)CO (stereo not drawn) [Compound 2, (3E,5E,11E)-trideca-3,5,11-trien-1,2,7,8-tetraol] | 37 (≈ 153 µM) | > 256 |  | > 256 | 43 (≈ 177 µM) | > 100 |  |  | 61 (≈ 252 µM) | > 256 |  |  |  |  | 
7 | C/C=C/CCC(O)C(O)C/C=C/CO (stereo not drawn) [Compound 6, (2E,9E)-undeca-2,9-dien-1,5,6-triol] | > 100 | > 256 |  | > 256 | 82 (≈ 409 µM) | > 100 |  |  | 44 (≈ 220 µM) | > 256 |  |  |  |  | 
8 | C/C=C/CCC(O)C(O)C/C=C/C(O)C(C)O (stereo not drawn) [Compound 4, (4E,11E)-trideca-4,11-diene-2,3,7,8-tetraol] | 42 (≈ 172 µM) | > 256 |  | 128 (≈ 524 µM) | 53 (≈ 217 µM) | > 100 | ≥ 64 | weak antifungal activity | > 100 | 256 (≈ 1050 µM) |  |  |  |  | 
9 | C/C=C/CCC(O)C(O)C/C=C/CC(C)O (stereo not drawn) [Compound 5, (4E,11E)-trideca-4,11-dien-2,7,8-triol] | > 100 | > 256 |  | > 256 | > 100 | 68 (≈ 298 µM) |  |  | 50 (≈ 219 µM) | > 256 |  |  |  |  | 
